Results published in patent US12653776B2, “Methods of treatment of cancer by continuous infusion of coenzyme Q10” (priority 2013, dated 2026).

Assay: First-in-human Phase 1 study (CTL0510), 4-hour IV infusion 3 times weekly: safety
Conditions: in vivo
Protocol: The first-in-human Phase 1 study with coenzyme Q10 nanosuspension (40 mg/ml) was conducted in 50 patients with advanced solid tumors. The objectives were to assess the safety, maximum tolerated dose, PK and PD of coenzyme Q10, specifically a 4% coenzyme Q10 nanosuspension formulation (as described in WO 2011/112900, the entire contents of which are expressly incorporated herein by reference), administered as a 4-hour IV infusion 3 times weekly in 28-day cycles. Nine dose levels were explored ranting from 5.62 to 139 mg/kg. Plasma concentration profiles and PK parameters were determined from blood samples collected pre-dose and at intervals to 48 hours post-dose.

Substance: Vitamin K [reference compound]
- INR after Vitamin K administration: all INRs decreased to grade 1 or resolved
